Literature values, collected in PMC12910647, “Tumor-Targeted Delivery of an EGFR Inhibitor Prodrug via Site-Specific Albumin Conjugation” (Journal of Medicinal Chemistry, 2026).

Set-up: method as in not given
Conditions: in mice, reported value; ref not given

In the case of C=CC(=O)Nc1cc(Nc2nccc(-c3cn(C)c4ccccc34)n2)c(OC)cc1N(C)CCN(C)C [osimertinib], the “maximum tolerated dose (MTD)” value is listed as 25 mg/kg.
